Results taken from patent US20080275032A1, “Pyridazinone compounds” (priority 2006, published 2008).

target: HCV NS5B polymerase (Hepatitis C virus genotype 1b, UniProt P26663); assay: biochemical; details: HCV polymerase inhibition, 50 nM enzyme, 2 h at room temperature, FlashPlate [α-33P]GTP incorporation
Procedure: NS5B Polymerase Inhibition Assay (IC50)
Compounds were tested for HCV polymerase inhibition. Assays were performed in a 96-well streptavidin-coated FlashPlate using 50 nM enzyme, 0.5 μCi of [α-^33P]GTP, 0.6 μM GTP, and 50 nM 5′biotinylated oligo (rG13)/poly rC in 20 mM Tris-HCl, pH 7.5, 5 mM MgCl2, 20 mM NaCl, 5 mM dithiothreitol, and 0.1 g/L BSA. The reaction was stopped by aspiration after 2 h at room temperature and the plate was washed several times. After washing, incorporated radioactivity was counted using a Microbeta scintillation counter.

HCV NS5B polymerase, sequence (P26663 2420-3010): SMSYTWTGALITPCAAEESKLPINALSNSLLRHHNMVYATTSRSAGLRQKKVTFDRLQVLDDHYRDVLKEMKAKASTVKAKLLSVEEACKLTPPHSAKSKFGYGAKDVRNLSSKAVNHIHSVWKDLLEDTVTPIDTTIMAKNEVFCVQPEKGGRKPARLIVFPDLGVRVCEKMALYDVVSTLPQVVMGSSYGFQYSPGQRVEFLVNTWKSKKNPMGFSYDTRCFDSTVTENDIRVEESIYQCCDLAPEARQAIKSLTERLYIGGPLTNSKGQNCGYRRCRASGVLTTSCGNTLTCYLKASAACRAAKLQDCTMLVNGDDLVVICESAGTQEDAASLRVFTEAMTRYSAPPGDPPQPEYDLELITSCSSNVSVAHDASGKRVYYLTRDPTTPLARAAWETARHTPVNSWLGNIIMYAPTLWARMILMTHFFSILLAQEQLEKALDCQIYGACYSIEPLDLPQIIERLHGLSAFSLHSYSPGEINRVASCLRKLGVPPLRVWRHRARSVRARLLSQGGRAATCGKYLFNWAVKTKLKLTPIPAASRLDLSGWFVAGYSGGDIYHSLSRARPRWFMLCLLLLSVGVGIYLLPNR

Row | SMILES | IC50 [nM]
1 | CC(C)CCn1nc(-c2cccs2)c(OC(=O)C(C)C)c(C2=Nc3ccc(N(C)S(C)(=O)=O)cc3S(=O)(=O)N2)c1=O [Isobutyric acid 5-[7-(methanesulfonyl-methyl-amino)-1,1-dioxo-1,2-dihydro-1λ^6-benzo[1,2,4]thiadiazin-3-yl]-1-(3-methyl-butyl)-6-oxo-3-thiophen-2-yl-1,6-dihydro-pyridazin-4-yl ester] | 1000 to 10000
2 | CC(C)CCn1nc(-c2cncs2)c(O)c(C2=Nc3ccc(N(CCO)S(C)(=O)=O)cc3S(=O)(=O)N2)c1=O [N-(2-Hydroxy-ethyl)-N-{3-[5-hydroxy-2-(3-methyl-butyl)-3-oxo-6-thiazol-5-yl-2,3-dihydro-pyridazin-4-yl]-1,1-dioxo-1,2-dihydro-1λ^6-benzo[1,2,4]thiadiazin-7-yl}-methanesulfonamide] | 100 to 1000
3 | CC(C)CCn1nc(-c2cccs2)c(O)c(C2=Nc3ccc(N(C(=O)OC(C)C)S(C)(=O)=O)cc3S(=O)(=O)N2)c1=O [N-({3-[5-hydroxy-2-(3-methyl-butyl)-3-oxo-6-thiophen-2-yl-2,3-dihydro-pyridazin-4-yl]-1,1-dioxo-1,2-dihydro-1λ^6-benzo[1,2,4]thiadiazin-7-yl}-N-methanesulfonyl)-isopropylcarbamate] | 100 to 1000
4 | CC(C)CCn1nc(-c2cccs2)c(O)c(C2=Nc3ccc(N(COCc4ccccc4)S(C)(=O)=O)cc3S(=O)(=O)N2)c1=O [N-Benzyloxymethyl-N-{3-[5-hydroxy-2-(3-methyl-butyl)-3-oxo-6-thiophen-2-yl-2,3-dihydro-pyridazin-4-yl]-1,1-dioxo-1,2-dihydro-1λ^6-benzo[1,2,4]thiadiazin-7-yl}-methanesulfonamide] | 1000 to 10000
5 | CS(=O)(=O)Nc1ccc2c(c1)S(=O)(=O)N=C(c1c(O)c(-c3cccs3)nn(Cc3ccccc3)c1=O)N2 [N-[3-(2-Benzyl-5-hydroxy-3-oxo-6-thiophen-2-yl-2,3-dihydro-pyridazin-4-yl)-1,1-dioxo-1,2-dihydro-1λ^6-benzo[1,2,4]thiadiazin-7-yl]-methanesulfonamide] | < 100
6 | O=C(NS(=O)(=O)Nc1ccc2c(c1)S(=O)(=O)NC(c1c(O)c(-c3cncs3)nn(CC3CCC3)c1=O)=N2)OCc1ccccc1 [N-[3-(2-Cyclobutylmethyl-5-hydroxy-3-oxo-6-thiazol-5-yl-2,3-dihydro-pyridazin-4-yl)-1,1-dioxo-1,2-dihydro-1λ^6-benzo[1,2,4]thiadiazin-7-yl]-3-carbamic-acid-benzyl-ester-sulfamide] | < 100
7 | CS(=O)(=O)Nc1ccc2c(c1)S(=O)(=O)NC(c1c(O)c(-c3cncs3)nn(CC3CCC3)c1=O)=N2 [N-[3-(2-Cyclobutylmethyl-5-hydroxy-3-oxo-6-thiazol-5-yl-2,3-dihydro-pyridazin-4-yl)-1,1-dioxo-1,2-dihydro-1λ^6-benzo[1,2,4]thiadiazin-7-yl]-methanesulfonamide] | < 100
8 | CS(=O)(=O)Nc1ccc2c(c1)S(=O)(=O)NC(c1c(O)c(-c3cccs3)nn(CC3CCC3)c1=O)=N2 [N-[3-(2-Cyclobutylmethyl-5-hydroxy-3-oxo-6-thiophen-2-yl-2,3-dihydro-pyridazin-4-yl)-1,1-dioxo-1,2-dihydro-1λ^6-benzo[1,2,4]thiadiazin-7-yl]-methanesulfonamide] | < 100
9 | CS(=O)(=O)Nc1ccc2c(c1)S(=O)(=O)NC(c1c(O)c(-c3ccccc3)nn(CC3CC3)c1=O)=N2 [N-[3-(2-Cyclopropylmethyl-5-hydroxy-3-oxo-6-phenyl-2,3-dihydro-pyridazin-4-yl)-1,1-dioxo-1,2-dihydro-1l6-benzo[1,2,4]thiadiazin-7-yl]-methanesulfonamide] | 100 to 1000
10 | CCC(C)n1nc(-c2cccs2)c(O)c(C2=NS(=O)(=O)c3cc(NS(C)(=O)=O)ccc3N2)c1=O (stereo not shown) [N-[3-(2-sec-Butyl-5-hydroxy-3-oxo-6-thiophen-2-yl-2,3-dihydro-pyridazin-4-yl)-1,1-dioxo-1,2-dihydro-1λ^6-benzo[1,2,4]thiadiazin-7-yl]-methanesulfonamide] | 100 to 1000
11 | CS(=O)(=O)Nc1ccc2c(c1)S(=O)(=O)NC(c1c(O)c(-c3cccs3)nn(Cc3ccccn3)c1=O)=N2 [N-[3-(5-Hydroxy-3-oxo-2-pyridin-2-ylmethyl-6-thiophen-2-yl-2,3-dihydro-pyridazin-4-yl)-1,1-dioxo-1,2-dihydro-1λ^6-benzo[1,2,4]thiadiazin-7-yl]-methanesulfonamide] | < 100
12 | CS(=O)(=O)Nc1ccc2c(c1)S(=O)(=O)N=C(c1c(O)c(-c3cccs3)nn(Cc3ccsc3)c1=O)N2 [N-[3-(5-Hydroxy-3-oxo-6-thiophen-2-yl-2-thiophen-3-ylmethyl-2,3-dihydro-pyridazin-4-yl)-1,1-dioxo-1,2-dihydro-1λ^6-benzo[1,2,4]thiadiazin-7-yl]-methanesulfonamide] | < 100
13 | CC(C)CC(C)n1nc(-c2cccs2)c(O)c(C2=NS(=O)(=O)c3cc(NS(C)(=O)=O)ccc3N2)c1=O (stereo not shown) [N-{3-[2-(1,3-Dimethyl-butyl)-5-hydroxy-3-oxo-6-thiophen-2-yl-2,3-dihydro-pyridazin-4-yl]-1,1-dioxo-1,2-dihydro-1λ^6-benzo[1,2,4]thiadiazin-7-yl}-methanesulfonamide] | 100 to 1000
14 | CC(C)(C)Cn1nc(-c2cccs2)c(O)c(C2=Nc3ccc(NS(C)(=O)=O)cc3S(=O)(=O)N2)c1=O [N-{3-[2-(2,2-Dimethyl-propyl)-5-hydroxy-3-oxo-6-thiophen-2-yl-2,3-dihydro-pyridazin-4-yl]-1,1-dioxo-1,2-dihydro-1λ^6-benzo[1,2,4]thiadiazin-7-yl}-methanesulfonamide] | < 100
15 | CS(=O)(=O)Nc1ccc2c(c1)S(=O)(=O)N=C(c1c(O)c(-c3cccs3)nn(CCC3CCCCC3)c1=O)N2 [N-{3-[2-(2-Cyclohexyl-ethyl)-5-hydroxy-3-oxo-6-thiophen-2-yl-2,3-dihydro-pyridazin-4-yl]-1,1-dioxo-1,2-dihydro-1λ^6-benzo[1,2,4]thiadiazin-7-yl}-methanesulfonamide] | 100 to 1000
16 | CS(=O)(=O)Nc1ccc2c(c1)S(=O)(=O)N=C(c1c(O)c(-c3cccs3)nn(CCC3CCCC3)c1=O)N2 [N-{3-[2-(2-Cyclopentyl-ethyl)-5-hydroxy-3-oxo-6-thiophen-2-yl-2,3-dihydro-pyridazin-4-yl]-1,1-dioxo-1,2-dihydro-1λ^6-benzo[1,2,4]thiadiazin-7-yl}-methanesulfonamide] | < 100
17 | CS(=O)(=O)Nc1ccc2c(c1)S(=O)(=O)NC(c1c(O)c(-c3cncs3)nn(CCC3CC3)c1=O)=N2 [N-{3-[2-(2-Cyclopropyl-ethyl)-5-hydroxy-3-oxo-6-thiazol-5-yl-2,3-dihydro-pyridazin-4-yl]-1,1-dioxo-1,2-dihydro-1λ^6-benzo[1,2,4]thiadiazin-7-yl}-methanesulfonamide] | < 100
18 | CS(=O)(=O)Nc1ccc2c(c1)S(=O)(=O)N=C(c1c(O)c(-c3cccs3)nn(CCC3CC3)c1=O)N2 [N-{3-[2-(2-Cyclopropyl-ethyl)-5-hydroxy-3-oxo-6-thiophen-2-yl-2,3-dihydro-pyridazin-4-yl]-1,1-dioxo-1,2-dihydro-1λ^6-benzo[1,2,4]thiadiazin-7-yl}-methanesulfonamide] | < 100
19 | CS(=O)(=O)Nc1ccc2c(c1)S(=O)(=O)NC(c1c(O)c(-c3ccsc3)nn(CCC3CC3)c1=O)=N2 [N-{3-[2-(2-Cyclopropyl-ethyl)-5-hydroxy-3-oxo-6-thiophen-3-yl-2,3-dihydro-pyridazin-4-yl]-1,1-dioxo-1,2-dihydro-1λ^6-benzo[1,2,4]thiadiazin-7-yl}-methanesulfonamide] | < 100
